Test system: HFD-fed obese C57BL/6 mice
Assay: PBA pretreatment and leptin in HFD-fed obese mice (bodyweight, metabolic cage, DEXA)
Assay type: in vivo
Experimental: C57BL/6 mice that were kept on high fat diet feeding for 25 weeks were either treated with vehicle or PBA (1 g/kg/day) for 10 days. Following the pretreatment period mice were given daily leptin (5 mg/kg/day, IP) treatment. (a) Bodyweight (g), (b) % decrease in the bodyweight, and (c) 24 hour food intake (g) during the 30 days of leptin administration. Metabolic cage analysis was performed after 25 days of treatment (d) O2 consumption (ml/kg/hr), (e) CO2 production (ml/kg/hr), (f) X-axis ambulatory activity, (g) Respiratory exchange ratio (VCO2/VO2), (h) Heat generation (kcal/hr). Dexa scan analysis of (i) Lean body mass (g), (j) Fat % and (k) Total fat amount (g). C57BL6 mice were fed a HFD for a period of 25 weeks and then either treated with PBA (1 g/kg) or VEH for 16 days. (1) PERK phosphorylation in the hypothalamus extracts. (m) Leptin-stimulated Stat3^Tyr705 phosphorylation in the VEH and PBA-treated HFD-fed mice. (n) C57BL6 mice were fed a ND for a period of 25 weeks and then either treated with PBA (1 g/kg) or VEH for 16 days. Following the treatment period mice were starved for six hours and subsequently injected with leptin (IP, 1 mg/kg). Stat3^Tyr705 phoshorylation and total Stat levels were examined in the hypothalamus extracts. (n=6 in each group). Error bars are ±S.E.M., P values are determined by Student's t-test. (*p<0.05, **p<0.01, ***p<0.001)
Obesity owing to a high fat diet is fundamentally different from that seen in ob/ob mice in that it occurs in the face of high leptin levels. To determine whether PBA also sensitizes HFD-fed obese mice to leptin, mice that were kept on HFD for 25 weeks were pretreated with vehicle or PBA for 10 days, and then given leptin treatment (5 mg/kg/day). Leptin administration to the vehicle-treated group led to an acute weight loss, which was rapidly regained (FIG. 3a). By the end of treatment period, leptin created a slight but significant change in the body weight in the vehicle-treated group by reducing it from 42.42±0.27 g to 40.78±0.55 (3.8±0.9% decrease in bodyweight) (FIG. 3a,b). […] During the course of the experiment we placed the vehicle and PBA-treated groups in metabolic cages to investigate metabolic homeostasis in detail. […] Following the metabolic cage analysis we performed DEXA scan to analyze whole body fat content.

[1] = mice on HFD 25 weeks, leptin 5 mg/kg/day IP, 30 days, vehicle or PBA (1 g/kg/day) pretreated

leptin: adipocyte-derived hormone that suppresses appetite
lean mass (HFD-fed mice, DEXA scan): does not change | initial body weight (mice on HFD 25 weeks, before leptin 5 mg/kg/day, vehicle or PBA pretreated 10 days): 42.42 ± 0.27 g | body weight at end of treatment period [1]: 40.78 ± 0.55 g | decrease in bodyweight [1]: 3.8±0.9%

From patent US9283277B2, “Methods and compositions for the treatment of obesity” (Children's Medical Center Corporation, priority 2008, dated 2016)
